One data set concerns the target T1, insulin (Homo sapiens, UniProt P01308).
T1 construct: insulin (purchased from Sigma) was dissolved in deionized water; purchased Sigma
As to the kind of experiment: Insulin β structure recognition (thioflavin T fluorescence). The data set is classed as binding. Particulars: insulin 0.1 mg/ml with β structure; average of two measurements; read-out: Insulin β sheet structure recognition EC50. The text has this:
(2)Method of Measuring Insulin β Structure Recognition
It is known that proteins having β sheet structure such as insulin, amylin, etc are present in the human body in addition to the amyloid β protein (Burket et al., Biochemistry, vol. 11, p. 2435-2439, 1972; Ashburn et al, Chemistry and Biology, vol. 3, p. 351-358, 1996). It is desirable that a probe for diagnosing diseases in which amyloid is accumulated, including Alzheimer's disease by recognizing the amyloid protein, has the higher affinity with the amyloid β protein and has the lower affinity with other proteins having β sheet structure. Then, the affinity of each compound to insulin having β structure was measured.
A method of quantifying β sheet structure of insulin in vitro was slightly modified to be used in the test of the present invention, with reference to the report by Klunk et al. (Journal of Histochemistry and Cytochemistry, vol.37, p.1237-1281, 1989). That is, insulin (purchased from Sigma) was dissolved in deionized water, adjusted to pH2 with hydrochloric acid, heated at 92° C. for 10 minutes, and cooled in a dry ice/ethanol cooling bath. Thereafter, heating at 92° C. for 3 minutes and cooling in a dry ice/ethanol cooling bath were repeated 7 or 8 times. This insulin solution was further diluted to 0.1 mg/ml with a phosphate buffer (pH 7.4) , and dispensed in a 96-well microplate at each volume of 50 microliters. A test compound dissolved in deionized water was dispensed at a volume of 50 microliters, and thiofravin T (emitting fluorescence depending on an extent of β structure) dissolved in a glycine-NaOH buffer (pH 8.5) was dispensed at each volume of 100 microliters, and then the fluorescent extent was measured with a fluorescent microplate reader (manufactured by Molecular Device, Model fmax) at an excitation wavelength of 442 nm and a measurement wavelength of 485 nm. When the fluorescence of thioflavin T alone was regarded as D, the fluorescence under the coexistence of insulin and thioflavin T was regarded as E, and the fluorescence under the coexistence of insulin, thioflavin T and a test compound was regarded as F, the insulin β structure recognition for the test compound was calculated by the following formula:
Insulin β structure recognition for test compound (%) ={(E−F)/(E−D)}×100
based on this value, by using the BSAS (Biological Statistical Analysis System) statistic program the 50% effective concentration (EC50) for recognizing an insulin β sheet structure for the test compound was obtained.

Another data set concerns the target T2, amyloid β protein (Homo sapiens, UniProt P05067).
T2 construct: the amyloid β protein (purchased from Peptide Laboratory) was dissolved in a potassium phosphate buffer (pH7.4); purchased Peptide Laboratory
As to the kind of experiment: β structure recognition of amyloid β protein (thioflavin T fluorescence). The data set is classed as binding. Particulars: for β structure recognition (in words): comment on Table I; for β structure recognition (%) at 1 µM: read-out: β Structure recognition (%). How it is done:
(1) Method of Quantifying the Amyloid β Protein Having β Sheet Structure—method of Measuring of Recognition of β Structure in a Test Compound
Then, each 100 microliters of thioflavin T (which emits fluorescence depending on an extent of β structure of the amyloid β protein) dissolved in a glycine-NaOH buffer (pH 8.5) was added (final concentration 3 μM), and the fluorescence was immediately measured with a fluorescent microplate reader (manufactured by Molecular Device, Model fmax) at an excitation wavelength of 442 nm and a measurement wavelength of 485 nm. When the fluorescence of thioflavin alone was regarded as A, the fluorescence under the coexistence of the amyloid β protein and thioflavin T was regarded as B, and the fluorescence under the coexistence of the amyloid β protein, thioflavin T and a test compound was regarded as C, the recognition of β structure for the test compound was calculated by the following formula (unless otherwise indicated, the concentration of a test compound was 1 μM):
β structure recognition for test compound (%)={(B−C)/(B−A)}×100

Data set [1] is described as follows: Distribution coefficient between water/1-octanol. The data set is classed as physicochemical. Conditions: 1-octanol / aqueous phase, pH 5.
The nature of data set [2]: Distribution coefficient between water/1-octanol. It counts as physicochemical. How it is done: As an oily phase, 1-octanol was used and, as an aqueous phase, a phosphate buffer (pH 7.3) or ultra-pure water was used. A suitable amount of a test compound was dissolved in an oily phase or an aqueous phase, and both phases were placed in the same test tube, and shaken vigorously at room temperature for 30 minutes. After allowing to stand at room temperature over 1 hour, centrifugation at 2000 rpm for 10 minutes was carried out, followed by further standing at room temperature for 1 hour. The aqueous phase and the oily phase were sampled, respectively, and transferred to a 96-well microplate. By using a microplate reader (manufactured by Molecular Device, Model Spectramax 250), the absorbance was measured at a maximum absorbing wavelength for each test compound, and the concentration of the test compound was calculated from a calibration curve previously obtained. A distribution coefficient was calculated by the following formula. Distribution coefficient for test compound =(concentration of test compound in oily phase)/(concentration of test compound in aqueous phase) As the distribution coefficient becomes larger, it can be said that the blood-brain barrier permeability for the test compound is higher.

[3] abbreviates: test compound 1 μM, thioflavin T 3 μM, average of duplicated experiments.

Data on seven molecules can be found in patent US20030138374A1, “Image diagnosis probe based on substituted azobenzene or analogue thereof for disease attributable to amyloid accumulation and composition for image diagnosis containing the same” (priority 2000, published 2003).

Each structure is given as a SMILES string. Like-named read-outs stand apart in the source and are kept apart here.

T2 sequence (P05067 672-711 limits assumed): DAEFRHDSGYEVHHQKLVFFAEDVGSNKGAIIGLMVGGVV
T1 sequence (P01308 25-54 limits assumed, species assumed): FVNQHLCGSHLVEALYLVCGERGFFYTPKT
T1 sequence (P01308 90-110 limits assumed, species assumed): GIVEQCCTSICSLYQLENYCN

As a reminder, the EC50 is the concentration that produces a half-maximal response. In the case of `CCN(CC)c1ccc(/N=N/c2ccc(Br)cn2)c(O)c1` [SA-147], the EC50 at insulin turned out to be 38 nM. Further, the “β structure recognition (in words)” value at amyloid β protein is “highly recognize β structure”. Further, the β structure recognition (%) at 1 µM on amyloid β protein (setting [3]) stood at 87.2%.
With `O=C(O)c1cc(/N=N/c2ccc(-c3ccc(/N=N/c4ccc(O)c(C(=O)O)c4)cc3)cc2)ccc1O` [Chrysamine G, reference compound], the Distribution coefficient in data set [1] is on record as 9.7 (pH 5). The EC50 at insulin worked out at 253 nM. In addition, the β structure recognition (%) at 1 µM at amyloid β protein (setting [3]) was determined as 66.8%.
Consider `CN(C)c1ccc(/N=N/c2ccc(N=C=S)cc2)cc1` [SA-239, 4-((4-isothiocyanatphenyl)azo)-N,N-dimethylaniline], for which, on insulin, the EC50 was found to be 120 nM. Further, on amyloid β protein, the “β structure recognition (in words)” value is “highly recognize β structure” and the β structure recognition (%) at 1 µM amounted to 83.3%.
For the molecule `CN(C)c1ccc(/N=C2\C=CC(=O)c3ccccc32)cc1` [SA-244, Indophenol Blue], the concentration for a half-maximal effect (EC50) at insulin was determined as 449 nM. Also, the “β structure recognition (in words)” value on amyloid β protein is reported as “highly recognize β structure”. The β structure recognition (%) at 1 µM at amyloid β protein (setting [3]) amounted to 96.9%.
With `Nc1c(/N=N/c2ccc(-c3ccc(/N=N/c4cc(S(=O)(=O)O)c5ccccc5c4N)cc3)cc2)cc(S(=O)(=O)O)c2ccccc12` [Congo red, reference compound], the EC50 at insulin worked out at 153 nM. Also, the β structure recognition (%) at 1 µM at amyloid β protein (setting [3]) was found to be 89.3%.
As for `CN(C)c1ccc(/C=C/c2cccc(/C=C/c3ccc(N(C)C)cc3)[n+]2C)cc1.[I-]` [Compound N-039, N-[4-(2-{6-[4-(dimethylamino)styryl]-1-methylpiridinium-2-yl}vinyl)phenyl]-N-methylmethanamine], the Distribution coefficient in data set [2] (1-octanol / phosphate buffer (pH 7.3) or ultra-pure water) is listed as 35. Moreover, the “Distribution coefficient (in words)” value in data set [2] (comment on Table I) was “high distribution coefficients”. Also, the EC50 at insulin is 113 nM. Moreover, the “β structure recognition (in words)” value on amyloid β protein is “highly recognize β structure”. For the same molecule, the β structure recognition (%) at 1 µM on amyloid β protein (setting [3]) was found to be 97.7%.
For the molecule `CCN(CC)c1ccc(/N=C/c2ccc(N(CC)CC)cc2O)cc1` [Compound N-058, 5-(diethylamino)-2-({[4-(diethylamino)phenyl]imino}methyl)phenol], at insulin, the half-maximal effective concentration (EC50) turned out to be 129 nM. Further, the “β structure recognition (in words)” value on amyloid β protein was “highly recognize β structure”. Also, the “β Structure recognition (%)” value on amyloid β protein (setting [3]) stood at 93.6%.
